In patent US20250115598A1 (Anaxis Pharma Pty Ltd, priority 2021, published 2025) one finds IC50, Kd and DC50 data, which are given here for ten molecules.

Assay [1] deals with U937 cells. The experiment in a line: Counter screen: cell viability without the TSQ cocktail (off-target effect). Also noted: species or system human. As for the experimental part: • Cell Line ID: U937 human histiocytic leukemia cell line. • Cell Concentration (cells/well): Final cell density is 20000 cells per well. • Cell growth medium: HT-RPMI medium+7.4% Fetal Bovine Serum (FBS). Cells are cultured in Corning 150 cm^2 tissue culture flasks with vented caps at 37° C./5% CO2. • Incubation: Plates were incubated at 37° C./5% CO2 in a humidified incubator for 48 hours following addition of compounds and death stimuli (TSQ cocktail). • Compound concentration: 36 μM starting concentration, 1:3 dilution, 10 point • DMSO final concentration (% v/v): 0.3%. Compounds in TSQ Cocktail (T: TNF; S: Smac Mimetic; Q: Q-VD-OPh) and their Final Concentrations: • hTNF-Fc (100 ng/ml)—produced by standard procedures as shown in Bossen et al., J. Biol. Chem., 2006, 281(20), 13964-13971. • Compound A (500 nM)—Smac mimetic, Tetralogic and SYNthesis med chem • Q-VD-OPh (10 μM)—MP Biomedicals
The cellular assay was carried out according to the following steps: • 1. Each well was prepared by sequential addition of: • a. DMSO (control; columns 1-2 and 23-24) or compound in DMSO—addition was performed using acoustic transfer of nL volumes of stock compound to give final test concentrations of 36, 12, 4, 1.3, 0.44, 0.148, 0.049, 0.016, 0.005 and 0.002 μM. All wells were backfilled with DMSO to a final total volume in the well of 100 nL. • b. Following compound/DMSO addition in step (a), 40 μL of cell suspension (5×10^5 cells/mL) was added to provide a final cell concentration of 20,000 cells per well, and • c. Following cell addition in step (b), 10 μL of 5×TSQ cocktail (except to positive controls; columns 1 and 23) was added to each well. • 2. After 48 hours, plate was removed from the 37° C. incubator and equilibrated to room temperature for 45 minutes. • 3.15 μL of room temperature CellTitre-Glo2™ (Promega™) was added to each well. • 4. Shook plates for 2 minutes (˜600 rpm) and incubated at room temperature for 15 minutes to allow signal to stabilise. • 5. Read luminescence readout on a plate reader.
• Assay involving the TSQ cocktail (T: TNF; S: Smac mimetic; Q: Q-VD-OPh): TSQ treatment ensures that cells specifically undergo necroptotic cell death. TNF activates the TNF receptor, Smac mimetic directs the signal away from proinflammatory signaling and toward the RIPK1/RIPK3-mediated cell death pathways, and Q-VD-OPh ensures that the apoptotic response is blocked leaving only the programmed necrosis response. The compounds' activity (solution in DMSO) tested in this TSQ-induced assay was evaluated by determining the number of viable cells in culture by measuring the amount of ATP present as measured by CelltiterGlo. • Counter screen: In parallel, all compounds were tested for their ability to affect cell viability. The same U937 cells were treated with compound in DMSO without the TSQ cocktail. This counter screen enabled evaluation of off-target effects. In this case, cell viability was measured by CelltiterGlo.

In assay [2] the target is human RIPK3 (Homo sapiens (Human), UniProt Q9Y572). The experiment in a line: KINOMEscan binding assay, human RIPK3. Particulars: Table 21. A digest of the protocol: (§1)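 Active-site competition binding: DNA-tagged kinase (T7 phage fusion from BL21-derived E. coli lysate, or HEK-293-expressed) captured on immobilized-ligand beads, with bound kinase in the eluate quantified by qPCR. Compounds ran as 11-point 3-fold dilutions, 1% DMSO, top 30,000 nM for most. Kd came from a Hill fit (slope −1).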
human RIPK3, sequence (Q9Y572 whole entry, the tested form may be a part): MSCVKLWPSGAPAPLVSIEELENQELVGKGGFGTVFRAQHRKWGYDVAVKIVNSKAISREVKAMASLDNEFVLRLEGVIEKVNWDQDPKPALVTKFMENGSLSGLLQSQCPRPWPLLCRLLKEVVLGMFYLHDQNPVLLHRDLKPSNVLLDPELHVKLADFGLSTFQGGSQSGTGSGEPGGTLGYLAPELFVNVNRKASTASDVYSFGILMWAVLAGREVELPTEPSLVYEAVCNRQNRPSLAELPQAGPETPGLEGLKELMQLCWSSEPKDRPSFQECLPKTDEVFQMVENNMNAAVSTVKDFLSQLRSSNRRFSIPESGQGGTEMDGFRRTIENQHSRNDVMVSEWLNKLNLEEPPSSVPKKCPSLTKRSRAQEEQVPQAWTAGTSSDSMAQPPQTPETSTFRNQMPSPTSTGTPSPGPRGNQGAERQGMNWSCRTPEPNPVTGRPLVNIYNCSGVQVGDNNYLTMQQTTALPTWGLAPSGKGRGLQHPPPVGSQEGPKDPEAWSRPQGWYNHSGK

The test system of assay [3] is Immortalised Mouse Dermal Fibroblasts (MDFs). Description: Cellular assay: inhibition of TSI induced necroptosis, CellTitre-Glo viability. Particulars: Mus musculus, Fibroblast, MDF, 3 hours TSI cocktail, read-out: Inhibition of TSI-induced necroptosis (IC50 cell-based assay) in MDF. A digest of the protocol: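 Necroptosis induced for 3 h with TSI: rhTNF 100 ng/ml, Smac mimetic 500 nM, caspase inhibitor IDN-6556 10 μM. Mouse dermal fibroblasts had received compound (36 μM top, ten three-fold steps) 30 min beforehand. ATP-based viability scaled between untreated and TSI-only wells; IC50 taken as 4-parameter curve inflection.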

The target in assay [4] is human RIPK1 (Homo sapiens (Human), UniProt Q13546). Description: KINOMEscan binding assay, human RIPK1. Particulars: Table 21. A digest of the protocol:
as §1

Assay [5] deals with endogenous MLKL in U937 (Homo sapiens (Human), UniProt Q8NB16). The experiment in a line: Degradation assay: endogenous MLKL in U937 (western blot). As to conditions: U937, 24 h incubation, read-out: Degradation of endogenous MLKL in U937 (DC50 cell-based assay). A digest of the protocol:
(§2)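 Western blot band intensity of MLKL, adjusted to GAPDH loading and normalized to DMSO-only wells, gave percent degradation. Compound exposure lasted 24 h at final concentrations of 10–0.016 μM in 1:5 steps, in mouse dermal fibroblasts or human U937 cells.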
A general note: In western blotting, separated proteins are transferred to a membrane and probed.

Assay [6] has as its target human MLKL (full length) (Homo sapiens (Human), UniProt Q8NB16). Description: KINOMEscan binding assay, human MLKL (full length). Particulars: hMLKL, Table 25; read-out: MLKL (KD). In a few lines: as §1
Assay [7] has as its target endogenous MLKL in MDF (Mus musculus (Mouse), UniProt Q9D2Y4). The experiment in a line: Degradation assay: endogenous MLKL in MDF (western blot). Particulars: MDF cells, 24 h incubation with compound, MLKL adjusted for loading with GAPDH, normalized to DMSO only control, read-out: Degradation of endogenous MLKL in MDF (DC50 cell-based assay). In a few lines:
as §2

The mark [8] stands for this setting: Homo sapiens, U-937, Table 23, read-out: Off-target effect (IC50 cell-based assay).

Read-outs that look alike come from different tables or passages of the source. Where only a bound is given, the exact number is not on record here.

endogenous MLKL in U937, sequence (Q8NB16 whole entry): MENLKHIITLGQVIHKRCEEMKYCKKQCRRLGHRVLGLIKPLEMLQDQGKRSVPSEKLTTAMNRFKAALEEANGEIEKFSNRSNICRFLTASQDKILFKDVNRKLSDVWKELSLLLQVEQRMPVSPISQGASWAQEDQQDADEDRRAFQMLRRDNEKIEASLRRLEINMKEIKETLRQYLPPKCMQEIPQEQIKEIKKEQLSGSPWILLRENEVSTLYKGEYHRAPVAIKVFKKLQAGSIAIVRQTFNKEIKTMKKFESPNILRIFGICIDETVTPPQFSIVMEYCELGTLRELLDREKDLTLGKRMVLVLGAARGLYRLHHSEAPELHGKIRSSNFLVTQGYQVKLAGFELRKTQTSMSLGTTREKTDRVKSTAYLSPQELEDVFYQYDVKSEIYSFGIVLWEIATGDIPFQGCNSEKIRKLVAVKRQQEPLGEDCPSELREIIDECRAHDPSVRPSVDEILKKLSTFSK
human MLKL (full length), sequence (Q8NB16 whole entry): as above
endogenous MLKL in MDF, sequence (Q9D2Y4 whole entry): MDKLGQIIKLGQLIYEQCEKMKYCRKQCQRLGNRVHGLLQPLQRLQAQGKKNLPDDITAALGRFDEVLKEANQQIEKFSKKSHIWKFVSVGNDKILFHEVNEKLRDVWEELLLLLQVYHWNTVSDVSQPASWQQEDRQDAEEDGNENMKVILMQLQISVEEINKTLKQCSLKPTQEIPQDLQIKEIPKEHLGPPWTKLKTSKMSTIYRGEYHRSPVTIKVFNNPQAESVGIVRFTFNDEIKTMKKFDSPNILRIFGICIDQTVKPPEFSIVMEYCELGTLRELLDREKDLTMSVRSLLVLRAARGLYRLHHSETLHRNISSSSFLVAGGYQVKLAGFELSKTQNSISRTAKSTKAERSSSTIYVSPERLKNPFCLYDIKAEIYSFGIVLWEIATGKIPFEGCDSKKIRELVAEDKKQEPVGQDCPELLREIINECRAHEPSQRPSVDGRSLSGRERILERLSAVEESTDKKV
human RIPK1, sequence (Q13546 whole entry): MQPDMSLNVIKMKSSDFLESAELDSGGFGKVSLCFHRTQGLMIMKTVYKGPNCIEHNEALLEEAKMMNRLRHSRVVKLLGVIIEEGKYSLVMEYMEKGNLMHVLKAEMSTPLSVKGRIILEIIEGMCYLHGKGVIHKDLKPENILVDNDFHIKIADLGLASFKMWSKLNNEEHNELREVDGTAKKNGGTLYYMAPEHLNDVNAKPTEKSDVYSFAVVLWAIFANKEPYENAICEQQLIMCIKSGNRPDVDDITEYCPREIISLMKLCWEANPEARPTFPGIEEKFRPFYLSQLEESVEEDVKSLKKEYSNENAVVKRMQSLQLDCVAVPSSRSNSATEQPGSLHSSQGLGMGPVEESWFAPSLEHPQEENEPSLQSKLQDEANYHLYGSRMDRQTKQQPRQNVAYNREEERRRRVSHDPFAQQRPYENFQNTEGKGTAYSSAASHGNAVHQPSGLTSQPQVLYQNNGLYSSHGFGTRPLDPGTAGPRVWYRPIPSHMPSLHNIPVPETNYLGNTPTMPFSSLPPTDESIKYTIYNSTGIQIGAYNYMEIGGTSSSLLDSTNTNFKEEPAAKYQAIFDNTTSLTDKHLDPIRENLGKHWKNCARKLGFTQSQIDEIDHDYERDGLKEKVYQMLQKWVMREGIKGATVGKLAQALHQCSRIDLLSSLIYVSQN

In the case of `C[C@H](Oc1cc(-c2nn(C)c3c(-c4cnn(C5CCN(C)C6(CC6)C5)c4)cnc(N)c23)ccc1NS(=O)(=O)C(F)F)c1ccc(F)cc1` (single isomer, unassigned) [Compound 170, N-(4-(4-amino-1-methyl-7-(1-((S*)-4-methyl-4-azaspiro[2.5]octan-7-yl)-1H-pyrazol-4-yl)-1H-pyrazolo[4,3-c]pyridin-3-yl)-2-((S)-1-(4-fluorophenyl)ethoxy)phenyl)-1,1-difluoromethanesulfonamide], the IC50 – broadly, the concentration that gives 50% inhibition – in assay [1] (setting [8]) is above 10000 nM.
In the case of `C[C@H](Oc1cc(-c2nn(C)c3c(-c4cnn(C5CCN(C)C6(CC6)C5)c4)cnc(N)c23)ccc1NS(=O)(=O)C(F)F)c1ccc(F)cc1` (single isomer, unassigned) [Compound 171, N-(4-(4-amino-1-methyl-7-(1-((R*)-4-methyl-4-azaspiro[2.5]octan-7-yl)-1H-pyrazol-4-yl)-1H-pyrazolo[4,3-c]pyridin-3-yl)-2-((S)-1-(4-fluorophenyl)ethoxy)phenyl)-1,1-difluoromethanesulfonamide], the IC50 in assay [1] (Table 23, read-out: Off-target effect (IC50 cell-based assay)) is above 10000 nM.
As for `C[C@H](Oc1cc(-c2nn(C)c3c(-c4cnn(C5CCN(C)CC5)c4)cnc(N)c23)ccc1NS(=O)(=O)C(F)F)c1ccc(F)cc1` [Compound 46, (S)-N-(4-(4-amino-1-methyl-7-(1-(1-methylpiperidin-4-yl)-1H-pyrazol-4-yl)-1H-pyrazolo[4,3-c]pyridin-3-yl)-2-(1-(4-fluorophenyl)ethoxy)phenyl)-1,1-difluoromethanesulfonamide], the IC50 was above 10000 nM in assay [1] (setting [8]) and below 1000 nM in assay [3] (Table 24). For the same molecule, the dissociation constant (Kd) in assay [2] and in assay [4] was above 10000 nM throughout.
Turning to `C[C@H](Oc1cc(-c2nn(C)c3c(-c4ccnc(C(C)(C)C)c4)cnc(N)c23)ccc1NS(=O)(=O)C(F)F)c1ccc(F)cc1` [Compound 48, (S)-N-(4-(4-amino-7-(2-(tert-butyl)pyridin-4-yl)-1-methyl-1H-pyrazolo[4,3-c]pyridin-3-yl)-2-(1-(4-fluorophenyl)ethoxy)phenyl)-1,1-difluoromethanesulfonamide], the IC50 in assay [1] (setting [8]) was 1000 to 10000 nM. The Kd in assay [2] and in assay [4] was above 10000 nM throughout.
On to `C[C@H](Oc1cc(-c2nn(C)c3c(-c4cnn(C5CCN(CCc6ccc7c(c6)C(=O)N(C6CCC(=O)NC6=O)C7=O)CC5)c4)cnc(N)c23)ccc1NS(=O)(=O)C(F)F)c1ccc(F)cc1` (stereo partly drawn) [Compound 1123, N-(4-{4-amino-7-[1-(1-{2-[2-(2,6-dioxopiperidin-3-yl)-1,3-dioxo-2,3-dihydro-1H-isoindol-5-yl]ethyl}piperidin-4-yl)-1H-pyrazol-4-yl]-1-methyl-1H-pyrazolo[4,3-c]pyridin-3-yl}-2-[(1S)-1-(4-fluorophenyl)ethoxy]phenyl)-1,1-difluoromethanesulfonamide], for which the DC50 in assay [5] and in assay [7] was below 1000 nM throughout. Also, the Kd (in general, the equilibrium constant for the complex coming apart) in assay [6] was below 10 nM. Further, the IC50 in assay [3] (Table 27) is below 1000 nM.
Take `C[C@H](Oc1cc(-c2nn(C)c3c(-c4cnn(C5CCN(C(=O)C6CCC(c7cccc8c7C(=O)N(C7CCC(=O)NC7=O)C8=O)CC6)CC5)c4)cnc(N)c23)ccc1NS(=O)(=O)C(F)F)c1ccc(F)cc1` (stereo partly drawn) [Compound 1125, N-(4-{4-amino-7-[1-(1-{4-[2-(2,6-dioxopiperidin-3-yl)-1,3-dioxo-2,3-dihydro-1H-isoindol-4-yl]cyclohexane-carbonyl}piperidin-4-yl)-1H-pyrazol-4-yl]-1-methyl-1H-pyrazolo[4,3-c]pyridin-3-yl}-2-[(1S)-1-(4-fluorophenyl)ethoxy]phenyl)-1,1-difluoromethanesulfonamide]: the DC50 in assay [5] and in assay [7] was below 1000 nM throughout. Besides, the Kd in assay [6] was in the range of 10 to 1000 nM. Besides, in assay [3] (Table 27), the IC50 is below 1000 nM.
On to `C[C@H](Oc1cc(-c2nn(C)c3c(-c4cnn(C5CCN(C(=O)C6CCC(c7ccc8c(c7)C(=O)N(C7CCC(=O)NC7=O)C8=O)CC6)CC5)c4)cnc(N)c23)ccc1NS(=O)(=O)C(F)F)c1ccc(F)cc1` (stereo partly drawn) [Compound 1126, N-(4-{4-amino-7-[1-(1-{4-[2-(2,6-dioxopiperidin-3-yl)-1,3-dioxo-2,3-dihydro-1H-isoindol-5-yl]cyclohexanecarbonyl}piperidin-4-yl)-1H-pyrazol-4-yl]-1-methyl-1H-pyrazolo[4,3-c]pyridin-3-yl}-2-[(1S)-1-(4-fluorophenyl)ethoxy]phenyl)-1,1-difluoromethanesulfonamide], for which the DC50 in assay [5] and in assay [7] was below 1000 nM throughout. Further, the Kd in assay [6] was below 10 nM. For the same molecule, the 50% inhibitory concentration (IC50) in assay [3] (Table 27) is below 1000 nM.
As for `C[C@H](Oc1cc(-c2nn(C)c3c(-c4cnn(C5CCC(C(=O)N6CCC(c7cccc8c7C(=O)N(C7CCC(=O)NC7=O)C8=O)CC6)CC5)c4)cnc(N)c23)ccc1NS(=O)(=O)C(F)F)c1ccc(F)cc1` (stereo partly drawn) [Compound 1127], the DC50 in assay [5] and in assay [7] was below 1000 nM throughout. In addition, the Kd in assay [6] fell in the range of 10 to 1000 nM. Also, the IC50 in assay [3] (Table 27) is below 1000 nM.
Take `Cn1nc(-c2ccc(NS(=O)(=O)C(F)F)c(F)c2)c2c(N)ncc(-c3cnn(C4CCN(C(=O)N5CCN(c6cccc7c6C(=O)N(C6CCC(=O)NC6=O)C7=O)CC5)CC4)c3)c21` (stereo not drawn) [Compound 1131, N-(4-{4-amino-7-[1-(1-{4-[2-(2,6-dioxopiperidin-3-yl)-1,3-dioxo-2,3-dihydro-1H-isoindol-4-yl]piperazine-1-carbonyl}piperidin-4-yl)-1H-pyrazol-4-yl]-1-methyl-1H-pyrazolo[4,3-c]pyridin-3-yl}-2-fluorophenyl)-1,1-difluoromethanesulfonamide]: the DC50 in assay [5] and in assay [7] was below 1000 nM each time. Moreover, the Kd in assay [6] is below 10 nM. The IC50 in assay [3] (Table 27) is 1000 to 10000 nM.
Consider `Cn1nc(-c2ccc(NS(=O)(=O)CC(F)(F)F)c(F)c2)c2c(N)ncc(-c3cnn(C4CCN(C(=O)[C@H]5C[C@H](Nc6cccc7c6C(=O)N(C6CCC(=O)NC6=O)C7=O)C5)CC4)c3)c21` (stereo partly drawn) [Compound 1134, N-{4-[4-amino-1-methyl-7-(1-{1-[(trans)-3-{[2-(2,6-dioxopiperidin-3-yl)-1,3-dioxo-2,3-dihydro-1H-isoindol-4-yl]amino}cyclobutanecarbonyl]piperidin-4-yl}-1H-pyrazol-4-yl)-1H-pyrazolo[4,3-c]pyridin-3-yl]-2-fluorophenyl}-2,2,2-trifluoroethane-1-sulfonamide], for which the half-maximal degradation concentration (DC50) in assay [5] and in assay [7] was below 1000 nM in each case. Also, the Kd in assay [6] was below 10 nM. In assay [3] (Table 27), the IC50 is below 1000 nM.
